Laboratory results published in patent US9421203B2, “Sensitization of cancer cells to DNA damage by inhibiting kinases essential for DNA damage checkpoint control” (Institute for Cancer Research, priority 2012, dated 2016).
“Also recorded” adds a separate entry of the source.

Assays:
[1] = test system: 300 recombinant human protein kinases; settings: of 300 recombinant human kinases; database / Anastassiadis 2011; cited from earlier work
Mia-PaCa-II cells = assay: Mia-PaCa-II cell viability after gemcitabine followed by authentic bosutinib; assay type: cell-based; settings: authentic bosutinib at 2.5 μM and 5 μM (FIG. 7D)
PANC1 cells [2] = assay: Time-lapse video-microscopy of checkpoint override (premature mitosis) in PANC1 cells; assay type: cell-based; settings: gemcitabine 24 h, then inhibitor 1 μM (UCN-01 100 nM), time-lapse 24 hours
Method: PANC1 cells were treated with gemcitabine for 24 hours before the addition of kinase inhibitors (1 μM), and filming commenced thereafter.
Time-lapse video microscopy was used to document the fates of cells treated with gemcitabine with and without the Chk1 inhibitor, UCN-01 (FIG. 3).

PANC1 cells [3] = assay type: cell-based; settings: for sensitization of PANC1 cells to gemcitabine: increasing gemcitabine 24 h, then UCN-01 100 nM, bosutinib or sunitinib 1 μM for 48 h (FIG. 1B)
PANC1 cells [4] = assay: cells; assay type: cell-based; settings: for viability of gemcitabine treated PANC1 cells: gemcitabine 10 nM 24 h, then inhibitor 1 μM for 48 h (FIG. 1A)
Method: FIGS. 7A-7D show the viability of PANC1 cells treated with increasing concentrations of (FIG. 7A) doxorubicin or (FIG. 7B) cisplatin (24 h) before the addition of UCN-01 (100 nM) or Bos-I (1000 nM) for a further 48 hours.
Identification of clinically relevant kinase inhibitors that sensitize cells to gemcitabine. In the experiments described in this Example, the general protocol was to treat pancreatic cancer cell line (Panc-1) with a dose of gemcitabine that induces DNA damage and arrests cell cycle progression. A panel of nine different clinically relevant kinase inhibitors (FIG. 1A) were added to gemcitabine treated cells, and were assessed for their ability to enhance killing of pancreatic cancer cells to gemcitabine. PANC1 cells were treated with a sub-lethal (IC20) concentration of gemcitabine (10 nM) for 24 hours (a time and concentration sufficient to induce DNA damage and S phase arrest) and kinase inhibitors (all at 1 μM final) were added for another 48 h before cell viability was measured. UCN-01, a Chk1 inhibitor that is established as a sensitizer of gemcitabine was included as a positive control.

PANC1 cells [5] = assay: Clonogenic survival assay in PANC1 cells; assay type: cell-based; settings: gemcitabine 10 nM 24 h
Method: Surviving colonies were determined 10 days later. […] After this time all drugs were removed and cells were plated to determine their efficiency of colony formation after 10 days.

[6] = test system: Ba/F3 cells expressing the Bcr-Abl wild-type (WT); assay: Viability of Ba/F3 cells expressing Bcr-Abl wild-type with bendamustine; assay type: cell-based; settings: Bos-I 1000 nM (FIG. 9A)
Method: (§1) FIGS. 9A and 9B show the viability of Ba/F3 cells either expressing (FIG. 9A) the Bcr-Abl wild-type (WT) or (FIG. 9B) the Bcr-Abl mutant (T3151) kinases (lower) treated with increasing concentrations of bendamustine alone or with the addition of Bos-1 (1000 nM).
(§2) It is believed that inhibitors of Src and Abl tyrosine kinases may be effective as a single agent in the treatment of CML (Chronic myelogenous leukemia) where it contains a specific chromosome translocation that fuses the Abl kinase to the Bcr gene. Inhibitors of the Bcr/Abl fusion kinase, such as imatinib and bostunib (Formula I), are effective in the treatment of CML, but resistance (at least for imatinib) invariably occurs. Resistance to imatinib occurs most often as a result of mutations at the gatekeeper position (Threonine 315) within the Abl kinase domain. Such mutants no longer respond to inhibitors such as imatinib. […] (FIG. 9A and FIG. 9B). It is believed that the activity of Bosutinib-isomer against wild type and T3151 mutant is likely mediated through its off-target effects against the DNA damage checkpoint kinases, Wee1 and Chk1.

EGF-1 cells = assay: Immunofluorescence of checkpoint override in patient-derived pancreatic cancer cell line EGF-1; assay type: cell-based; settings: arrest imposed by either gemcitabine or doxorubicin
Excerpt: Quantification of the percentage of cells that enter mitosis/override the checkpoint after treatment with either gemcitabine or doxorubicin is shown (right panel).
Tumor cells were isolated under an IRB-approved protocol and passaged as xenografts in mice. EGF-1 is a cell line that was derived from F1 tumors and used for in vitro studies.

PANC1 cells [7] = assay: Immunofluorescence of mitotic figures in gemcitabine-arrested cells; assay type: cell-based; settings: UCN-01 100 nM or Bos-I 1000 nM (FIG. 4)
Excerpt: Shown are representative images of cells from each treatment.
The mitotic figures of cells forced into mitosis by the newly identified sensitizers were examined to determine how they compared to checkpoint override by UCN-01. […] The defects include two lobes of chromatin that lie outside of the spindle, with the detached kinetochores lying within the spindle.
It was observed that overriding the gemcitabine induced S phase checkpoint arrest with Chk1 inhibitors (UCN-01) results in a discrete and reproducible mitotic defect called MUGs (mitotically unreplicated genomes). The defining feature of MUGs is the unreplicated centromeres in the genome are physically detached from the chromosome mass (FIG. 4).

[8] = test system: Ba/F3 cells expressing the Bcr-Abl mutant (T3151); assay: Viability of Ba/F3 cells expressing Bcr-Abl mutant with bendamustine; assay type: cell-based; settings: Bos-I 1000 nM (FIG. 9B)
Method: as §1, §2

Wee 1 = Wee 1 (Homo sapiens, UniProt P30291); assay: IC50 / kinase assay toward recombinant Wee1 (MBP or Cdc2 substrate); assay type: biochemical; settings: Cdc2 as substrate; data not shown
Wee 1, sequence (P30291 whole entry): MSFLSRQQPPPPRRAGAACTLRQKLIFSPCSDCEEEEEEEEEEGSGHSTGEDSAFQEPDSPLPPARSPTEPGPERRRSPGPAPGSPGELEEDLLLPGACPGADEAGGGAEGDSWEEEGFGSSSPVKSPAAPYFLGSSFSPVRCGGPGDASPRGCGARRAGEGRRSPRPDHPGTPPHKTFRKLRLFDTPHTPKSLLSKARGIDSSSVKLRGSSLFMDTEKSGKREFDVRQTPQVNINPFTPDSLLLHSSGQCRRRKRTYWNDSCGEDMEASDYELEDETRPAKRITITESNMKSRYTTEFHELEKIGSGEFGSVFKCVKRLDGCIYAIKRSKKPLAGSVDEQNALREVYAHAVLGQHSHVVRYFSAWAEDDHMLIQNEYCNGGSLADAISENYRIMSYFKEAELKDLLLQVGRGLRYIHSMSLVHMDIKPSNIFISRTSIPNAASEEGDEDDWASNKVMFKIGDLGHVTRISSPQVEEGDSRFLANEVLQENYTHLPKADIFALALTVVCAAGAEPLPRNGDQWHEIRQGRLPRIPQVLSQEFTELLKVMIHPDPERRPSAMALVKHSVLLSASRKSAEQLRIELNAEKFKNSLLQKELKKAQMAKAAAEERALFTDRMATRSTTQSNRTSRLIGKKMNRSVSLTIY

[9] = test system: Tyr15 phosphorylation of Cdc2; assay: Tyr15 phosphorylation of Cdc2 in gemcitabine treated PANC1 cells; assay type: cell-based; settings: PANC1 cells treated with gemcitabine
Excerpt: Inhibition of Tyr15 phosphorylation was not observed for dasatnib, which is fully consistent with its in vitro kinase profile, and its inability to override the DNA damage checkpoint.

COc1cc(Nc2c(C#N)cnc3cc(OCCCN4CCN(C)CC4)c(OC)cc23)c(Cl)cc1Cl [Authentic bosutinib, Bosutinib]
number of kinases inhibited by more than 50% [1]: 84/300
sensitization of Mia-PaCa-II cells to gemcitabine (Mia-PaCa-II cells): sensitized to gemcitabine
checkpoint override / premature entry into mitosis (PANC1 cells [2]): able to override the checkpoint and force cells into premature mitosis
minimum effective concentration to sensitize cells to gemcitabine (PANC1 cells [3]; PANC1, titration of sensitizer): 750 nM
sensitization of PANC1 cells to gemcitabine (PANC1 cells [3]): sensitized cells to gemcitabine
viability of gemcitabine treated PANC1 cells (PANC1 cells [4]): significantly reduced viability of cells treated with gemcitabine
sensitization to killing by gemcitabine, clonogenic survival (PANC1 cells [5]; compound 0.5 μM for 3 h, colonies after 10 days (FIG. 2)): not

Cn1c(=O)n(-c2ccc(C(C)(C)C#N)cc2)c2c3cc(-c4cnc5ccccc5c4)ccc3ncc21 [BEZ-235]
viability of gemcitabine treated PANC1 cells (PANC1 cells [4]): significantly reduced viability of cells treated with gemcitabine

COc1cc2c(Nc3cc(Cl)c(OC)c(Cl)c3)c(C#N)cnc2cc1OCCCN1CCN(C)CC1 [Bosutinib isomer, Bosutinib-I]
number of kinases inhibited by more than 50% [1]: 84
killing of cells in combination with Bendamustine [6]: enhanced killing of cells
checkpoint override / premature entry into mitosis (PANC1 cells [2]): increased the number of mitotic cells
premature entry into mitosis / checkpoint override in EGF-1 cells (EGF-1 cells): able to prematurely enter mitosis after overriding checkpoint arrests
mitotic figures of gemcitabine-arrested cells (PANC1 cells [7]): abnormal mitotic figures from gemcitabine-arrested cells that were nearly indistinguishable from UCN-01 treatment
sensitization of PANC1 cells to doxorubicin (PANC1 cells [4]; 1 μM of the isomer (FIG. 7A)): sensitization by the bosutinib isomer was observed
sensitization of PANC1 cells to cisplatin (PANC1 cells [4]; 1 μM of the isomer (FIG. 7B)): sensitization by the bosutinib isomer was observed
sensitization to gemcitabine at 1 uM (PANC1 cells [4]; PANC1, 1 uM, MTS assay and clonogenic assays): sensitized cells to gemcitabine
viability of gemcitabine treated PANC1 cells (PANC1 cells [4]): reduced the viability of gemcitabine treated cells in a dose-dependent manner
killing of cells in combination with Bendamustine [8]: enhanced killing of cells
sensitization to killing by gemcitabine, clonogenic survival (PANC1 cells [5]; compound 1 μM for 3 h, colonies after 10 days (FIG. 2, FIG. 6)): sensitized cells to killing by gemcitabine
Wee1 inhibitory activity against physiologically relevant substrate Cdc2 (Wee 1): recapitulated the studies that used MBP as a substrate
Tyr15 phosphorylation of Cdc2 [9]: dose-dependent inhibition of Tyr15 phosphorylation

CN[C@@H]1C[C@H]2O[C@@](C)([C@@H]1OC)n1c3ccccc3c3c4c(c5c6ccccc6n2c5c31)C(=O)N[C@@H]4O [UCN-01]
checkpoint override / premature entry into mitosis (PANC1 cells [2]): forced cells to prematurely enter mitosis; also recorded: increased the number of cells that entered mitosis
sensitization of PANC1 cells to gemcitabine (PANC1 cells [3]): sensitized cells to gemcitabine
mitotic figures of gemcitabine-arrested cells (PANC1 cells [7]): severely perturbed mitotic figures

Nc1ccn([C@@H]2O[C@H](CO)[C@@H](O)C2(F)F)c(=O)n1 [gemcitabine, Gemcitabine]
CC50 (PANC1 cells [4]; Homo sapiens, PANC-1, read-out: LC50 of gemcitabine alone): > 30 nM
